Data on 26 molecules can be found in patent US20140243302A1, “BRIDGED BICYCLIC COMPOUNDS FOR THE TREATMENT OF BACTERIAL INFECTIONS” (priority 2011, published 2014).

≈ marks a conversion by molar mass, not a printed value.

This assay deals with Staphylococcus aureus Smith. Kind of assay: MIC assay, modified agar dilution (CLSI), S. aureus Smith. Type of assay: cell-based. The conditions noted are these: Staphylococcus aureus, agar dilution, 35° C., 16-20 hr; lowest concentration that completely inhibited growth; read-out: S_aureus_Smith_WT_MIC. The method in brief: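 Agar dilution per CLSI on Mueller Hinton agar (plus 5% horse blood for S. pneumoniae and E. faecium), compound 128 to 0.001 μg/mL in two-fold steps. Spots of ~1×10^4 CFU incubated at 35 °C for 16-20 hr before MIC scoring.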
As to `COc1cc2ncc(=O)n(CCC34CCC(NCc5ccc6c(n5)NC(=O)CO6)(CC3)CO4)c2cc1OC` [Example 115, 6-((1-(2-(6,7-Dimethoxy-2-oxoquinoxalin-1(2H)-yl)ethyl)-2-oxabicyclo[2.2.2]octan-4-ylamino)methyl)-2H-pyrido[3,2-b][1,4]oxazin-3(4H)-one], the MIC was determined as 0.5 µg/mL (≈ 0.959 µM).
Turning to `O=C1COc2ccc(CNC34CCC(CCn5c(=O)ccc6cccnc65)(CC3)OC4)nc2N1` [Example 116, 6-((1-(2-(2-Oxo-1,8-naphthyridin-1(2H)-yl)ethyl)-2-oxabicyclo[2.2.2]octan-4-ylamino)methyl)-2H-pyrido[3,2-b][1,4]oxazin-3(4H)-one], the MIC stood at 16 µg/mL (≈ 34.7 µM).
In the case of `Cc1nnc2c(=O)n(CCC34CCC(NCc5ccc6c(n5)NC(=O)CO6)(CC3)CO4)c3ccccc3n12` [Example 117, 6-((1-(2-(1-Methyl-4-oxo-[1,2,4]triazolo[4,3-a]quinoxalin-5(4H)-yl)ethyl)-2-oxabicyclo[2.2.2]octan-4-ylamino)methyl)-2H-pyrido[3,2-b][1,4]oxazin-3(4H)-one] it was 64 µg/mL (≈ 124 µM); in that of `O=C1COc2ccc(CNC34CCC(CCN5C(=O)N6CCCN=C6c6ccccc65)(CC3)OC4)nc2N1` [Example 118, 6-(((1-(2-(6-Oxo-3,4-dihydro-2H-pyrimido[1,2-c]quinazolin-7(6H)-yl)ethyl)-2-oxabicyclo[2.2.2]octan-4-yl)amino)methyl)-2H-pyrido[3,2-b][1,4]oxazin-3(4H)-one], 32 µg/mL (≈ 61.9 µM).
For the molecule `O=C1COc2ccc(CNC34CCC(CCn5c(=O)ccc6ncc(F)cc65)(CC3)OC4)nc2N1` [Example 119, 6-((1-(2-(7-Fluoro-2-oxo-1,5-naphthyridin-1(2H)-yl)ethyl)-2-oxabicyclo[2.2.2]octan-4-ylamino)methyl)-2H-pyrido[3,2-b][1,4]oxazin-3(4H)-one], the MIC was 0.125 µg/mL (≈ 0.261 µM).
`COc1cnc2ccc(=O)n(CCC34CCC(NCc5ccc6c(n5)NC(=O)CO6)(CC3)CO4)c2c1` [Example 120, 6-(((1-(2-(7-Methoxy-2-oxo-1,5-naphthyridin-1(2H)-yl)ethyl)-2-oxabicyclo[2.2.2]octan-4-yl)amino)methyl)-2H-pyrido[3,2-b][1,4]oxazin-3(4H)-one]: the MIC is 0.016 µg/mL (≈ 0.0326 µM).
For the molecule `COc1cnc2ncc(=O)n(CCC34CCC(NCc5ccc6c(n5)NC(=O)CO6)(CC3)CO4)c2c1` [Example 121, 6-(((1-(2-(7-Methoxy-2-oxopyrido[2,3-b]pyrazin-1(2H)-yl)ethyl)-2-oxabicyclo[2.2.2]octan-4-yl)amino)methyl)-2H-pyrido[3,2-b][1,4]oxazin-3(4H)-one], the MIC stood at 0.016 µg/mL (≈ 0.0325 µM).
The result for `COc1ccc2ncc(=O)n(CCC34CCC(NCc5cc6c(cn5)OCCO6)(CC3)CO4)c2n1` [Example 122, 4-(2-(4-((2,3-Dihydro-[1,4]dioxino[2,3-c]pyridin-7-yl)methylamino)-2-oxabicyclo[2.2.2]octan-1-yl)ethyl)-6-methoxypyrido[3,2-b]pyrazin-3(4H)-one] reads 0.063 µg/mL (≈ 0.131 µM).
In the case of `COc1ccc2ncc(=O)n(CCC34CCC(NCc5cc6ccccc6n(C)c5=O)(CC3)CO4)c2n1` [Example 123, 6-Methoxy-4-(2-(4-((1-methyl-2-oxo-1,2-dihydroquinolin-3-yl)methylamino)-2-oxabicyclo[2.2.2]octan-1-yl)ethyl)pyrido[3,2-b]pyrazin-3(4H)-one] it was 1 µg/mL (≈ 1.99 µM); in that of `COc1ccc2ncc(O)c(CCC34CCC(NCc5ccc6c(n5)NC(=O)CO6)(CC3)CO4)c2n1` [Example 124, 6-(((1-(2-(3-Hydroxy-6-methoxy-1,5-naphthyridin-4-yl)ethyl)-2-oxabicyclo[2.2.2]octan-4-yl)amino)methyl)-2H-pyrido[3,2-b][1,4]oxazin-3(4H)-one], 0.031 µg/mL (≈ 0.0631 µM).
Take `COc1ccc2ncc(F)c(CCC34CCC(NCc5ccc6c(n5)NC(=O)CO6)(CC3)CO4)c2c1.Cl` [Example 125, 6-((1-(2-(3-Fluoro-6-methoxyquinolin-4-yl)ethyl)-2-oxabicyclo[2.2.2]octan-4-ylamino)methyl)-2H-pyrido[3,2-b][1,4]oxazin-3(4H)-one Hydrochloride]: the MIC was 0.016 µg/mL.
Consider `Cc1ccc2ncc(=O)n(CCC34CCC(NCc5ccc6c(n5)NC(=O)CO6)(CC3)CO4)c2n1` [Example 126, 6-(((1-(2-(6-Methyl-3-oxopyrido[2,3-b]pyrazin-4(3H)-yl)ethyl)-2-oxabicyclo[2.2.2]octan-4-yl)amino)methyl)-2H-pyrido[3,2-b][1,4]oxazin-3(4H)-one], for which the MIC came to 0.25 µg/mL (≈ 0.525 µM).
In the case of `COC(=O)c1cnc2ccc(=O)n(CCC34CCC(NCc5ccc6c(n5)NC(=O)CO6)(CC3)CO4)c2c1.Cl` [Example 127, Methyl 6-Oxo-5-(2-(4-((3-oxo-3,4-dihydro-2H-pyrido[3,2-b][1,4]oxazin-6-yl)methylamino)-2-oxabicyclo[2.2.2]octan-1-yl)ethyl)-5,6-dihydro-1,5-naphthyridine-3-carboxylate Hydrochloride] it was 0.25 µg/mL; in that of `N#Cc1cnc2ccc(=O)n(CCC34CCC(NCc5ccc6c(n5)NC(=O)CO6)(CC3)CO4)c2c1` [Example 128, 6-Oxo-5-(2-(4-((3-oxo-3,4-dihydro-2H-pyrido[3,2-b][1,4]oxazin-6-yl)methylamino)-2-oxabicyclo[2.2.2]octan-1-yl)ethyl)-5,6-dihydro-1,5-naphthyridine-3-carbonitrile], 0.063 µg/mL (≈ 0.129 µM); in that of `O=C1COc2ccc(CNC34CCC(CCn5c(=O)ccc6ncc(Cl)cc65)(CC3)OC4)nc2N1` [Example 129, 6-((1-(2-(7-Chloro-2-oxo-1,5-naphthyridin-1(2H)-yl)ethyl)-2-oxabicyclo[2.2.2]octan-4-ylamino)methyl)-2H-pyrido[3,2-b][1,4]oxazin-3(4H)-one], 0.063 µg/mL (≈ 0.127 µM).
With `O=C1COc2ccc(CNC34CCC(CCn5c(=O)ccc6ncc(Br)cc65)(CC3)OC4)nc2N1` [Example 130, 6-((1-(2-(7-Bromo-2-oxo-1,5-naphthyridin-1(2H)-yl)ethyl)-2-oxabicyclo[2.2.2]octan-4-ylamino)methyl)-2H-pyrido[3,2-b][1,4]oxazin-3(4H)-one], the MIC is 0.063 µg/mL (≈ 0.117 µM).
On to `COc1ccc2ccc(=O)n(CCC34CCC(NCc5ccc6c(n5)NC(=O)CO6)(CC3)CO4)c2n1.Cl` [Example 131, 6-((1-(2-(7-Methoxy-2-oxo-1,8-naphthyridin-1(2H)-yl)ethyl)-2-oxabicyclo[2.2.2]octan-4-ylamino)methyl)-2H-pyrido[3,2-b][1,4]oxazin-3(4H)-one Hydrochloride], for which the MIC was found to be 0.016 µg/mL.
Regarding `COc1ccc2ncc(F)c(NCC34CCC(NCc5ccc6c(n5)NC(=O)CO6)(CC3)CO4)c2n1` [Example 136, 6-({1-[(3-Fluoro-6-methoxy-[1,5]naphthyridin-4-ylamino)-methyl]-2-oxa-bicyclo[2.2.2]oct-4-ylamino}-methyl)-4H-pyrido[3,2-b][1,4]oxazin-3-one], the MIC was found to be 0.25 µg/mL (≈ 0.506 µM).
Take `CCOc1cc(C)c2ncc(F)c(CCC34CCC(NCc5ccc6c(n5)NC(=O)CO6)(CC3)CO4)c2n1` [Example 137, 6-[({1-[2-(6-Ethoxy-3-fluoro-8-methyl-1,5-naphthyridin-4-yl)ethyl]-2-oxabicyclo[2.2.2]oct-4-yl}amino)methyl]-2H-pyrido[3,2-b][1,4]oxazin-3(4H)-one]: the MIC amounted to 0.063 µg/mL (≈ 0.121 µM).
Regarding `COc1ccc2ncc(F)c(CC(O)(C(F)(F)F)C34CCC(NCc5ccc6c(n5)NC(=O)CO6)(CC3)CO4)c2n1` (centres unmarked) [Example 138, 6-[({1-[1,1,1-Trifluoro-3-(3-fluoro-6-methoxy-1,5-naphthyridin-4-yl)-2-hydroxypropan-2-yl]-2-oxabicyclo[2.2.2]oct-4-yl}amino)methyl]-2H-pyrido[3,2-b][1,4]oxazin-3(4H)-one], the MIC was 0.5 µg/mL (≈ 0.866 µM).
As to `COc1cc(C)c2ncc(F)c(CCC34CCC(NCc5ccc6c(n5)NC(=O)CO6)(CC3)CO4)c2c1` [Example 139, 6-((1-(2-(3-Fluoro-6-methoxy-8-methylquinolin-4-yl)ethyl)-2-oxabicyclo[2.2.2]octan-4-ylamino)methyl)-2H-pyrido[3,2-b][1,4]oxazin-3(4H)-one], the MIC is 0.063 µg/mL (≈ 0.124 µM).
In the case of `COc1cc(C)c2ncc(F)c(CC(O)C34CCC(NCc5ccc6c(n5)NC(=O)CO6)(CC3)CO4)c2c1` (centres unmarked) [Example 140, 6-[({1-[2-(3-Fluoro-6-methoxy-8-methylquinolin-4-yl)-1-hydroxyethyl]-2-oxabicyclo[2.2.2]oct-4-yl}amino)methyl]-2H-pyrido[3,2-b][1,4]oxazin-3(4H)-one] it was 0.063 µg/mL (≈ 0.121 µM); in that of `COc1cc2c(CCC34CCC(NCc5ccc6c(n5)NC(=O)CO6)(CC3)CO4)c(F)cnc2cc1F` [Example 141, 6-[({1-[2-(3,7-Difluoro-6-methoxyquinolin-4-yl)ethyl]-2-oxabicyclo[2.2.2]oct-4-yl}amino)methyl]-2H-pyrido[3,2-b][1,4]oxazin-3(4H)-one], 0.063 µg/mL (≈ 0.123 µM).
For `COc1ccc2ncc(F)c(CCC34CCC(NCc5ncc6c(n5)NC(=O)CO6)(CC3)CO4)c2n1` [Example 142, 2-((1-(2-(3-Fluoro-6-methoxy-1,5-naphthyridin-4-yl)ethyl)-2-oxabicyclo[2.2.2]octan-4-ylamino)methyl)-6H-pyrimido[5,4-b][1,4]oxazin-7(8H)-one], the MIC came out at 0.031 µg/mL (≈ 0.0627 µM).
With `COc1ccc2ncc(F)c(CC(O)C34CCC(NCc5ncc6c(n5)NC(=O)CO6)(CC3)CO4)c2n1` (centres unmarked) [Example 143, 2-((1-(2-(3-Fluoro-6-methoxy-1,5-naphthyridin-4-yl)-1-hydroxyethyl)-2-oxabicyclo[2.2.2]octan-4-ylamino)methyl)-6H-pyrimido[5,4-b][1,4]oxazin-7(8H)-one], the MIC was determined as 0.031 µg/mL (≈ 0.0607 µM).
Consider `COc1ccc2ncc(F)c(CCC34CCC(NCc5ncc6c(n5)OCCO6)(CC3)CO4)c2n1` [Example 144, N-((6,7-Dihydro-[1,4]dioxino[2,3-d]pyrimidin-2-yl)methyl)-1-(2-(3-fluoro-6-methoxy-1,5-naphthyridin-4-yl)ethyl)-2-oxabicyclo[2.2.2]octan-4-amine], for which the MIC is 0.125 µg/mL (≈ 0.26 µM).
